Test results taken from US20060009435A1, “Synthesis and powder preparation of fluticasone propionate” (priority 2004, published 2006).
Several values for one entry are separate records, joined by “and”; a condition that tells them apart may be missing. Equal entries are not always repeated. Entries after “also recorded” stand apart in the source; their conditions may differ. Where two headings read alike, the source gives them in different places.

Columns and labels:
Assay type in all cases: physicochemical
[1] = SEM micrograph of particle shape
[2] = X-ray powder diffraction of the powder (crystalline or amorphous morphology)
Method: X-ray diffraction data were acquired using a PHILIPS X-ray diffractometer model PW1050-70 set at 40 kV, 28 mA, using 1.54178 Å (Kα), diversion slit of 1°, receiving slit of 0.2 mm, scattering slit of 1° and a graphite monochromator.

[3] = Particle size distribution by dynamic light scattering (Malvern Mastersizer 2000); conditions: for particle size D(0.10) / particle size D(0.20) / particle size D(0.50) / particle size D(0.80) / particle size D(0.90) / particle size D(0.95) / particle size D(0.98) / particle size D(0.99) / particle size D(1.00): dynamic light scattering; for Particle size distribution D(v, 0.1), 0.1 quantile / Particle size distribution D(v, 0.5), 0.5 quantile / Particle size distribution D(v, 0.9), 0.9 quantile / Particle size distribution D(v, 0.95), 0.95 quantile: light scattering
Method: Particle size was measured on a dynamic light scattering device by Malvern model Mastersizer 2000, using a measuring range of 0.02-2000 μm, accuracy level of 1% at the median, helium neon laser as a red light source, and solid state light source as a blue light source. Particle size distributions are presented as the average particle size of specified percentiles, including the flanking 0.1 and 0.9 quantiles and the median 0.5 quantile of the overall particle size distribution versus volume curve.

[4] = Observation of powder flow, agglomeration tendency and electrostatic charge

Which “Particle shape (SEM micrograph)” value [1] does the source give for `CCC(=O)O[C@]1(C(=O)SCF)[C@H](C)C[C@H]2[C@@H]3C[C@H](F)C4=CC(=O)C=C[C@]4(C)[C@@]3(F)[C@@H](O)C[C@@]21C` [Example 13, fluticasone propionate] here?
The value was “regular spherical shape and have smooth surface; also recorded: uniform spherical shape”.

And the “Morphology by X-ray powder diffraction pattern” value [2]?
The value was “crystalline morphology”.

And the Particle size median [3]?
The Particle size median was “Particle size median: 2.21 microns”.

What about the “particle size D(0.10)” value [3] of the same molecule?
Its value is 0.95 micron.

And the “particle size D(0.20)” value [3]?
The value was 1.31 micron.

What about the “particle size D(0.50)” value [3] of the same molecule?
The value was 2.21 microns.

And the “particle size D(0.80)” value [3]?
Its value is 3.43 microns.

And the “particle size D(0.90)” value [3]?
Its value is 4.23 microns.

What about the “particle size D(0.95)” value [3] of the same molecule?
The value was 4.96 microns.

And the “particle size D(0.98)” value [3]?
The value was 5.82 microns.

And the “particle size D(0.99)” value [3]?
Its value is 6.37 microns.

And the “particle size D(1.00)” value [3]?
The value was 8.11 microns.

And the “Particle size distribution D(v, 0.1), 0.1 quantile” value [3]?
The value was 0.95 μ.

What about the “Particle size distribution D(v, 0.5), 0.5 quantile” value [3] of the same molecule?
Its value is 2.21 μ.

What about the “Particle size distribution D(v, 0.9), 0.9 quantile” value [3] of the same molecule?
The value was 4.23 μ.

What about the “Particle size distribution D(v, 0.95), 0.95 quantile” value [3] of the same molecule?
Its value is 4.96 μ.

And the “Electrostatic charge of the powder” value [4]?
Its value is “did not exhibit any static electricity”.

What about the “Powder characteristics (flow and morphology of the powder)” value [4] of the same molecule?
The value was “Free flowing crystalline powder”.

And the Tendency to agglomerate [4]?
The Tendency to agglomerate was “did not exhibit a tendency to agglomerate; also recorded: did not exhibit any tendency to agglomerate; also recorded: that does not tend to agglomerate”.

What does the source list for `CCC(=O)O[C@]1(C(=O)SCF)[C@H](C)C[C@H]2[C@@H]3C[C@H](F)C4=CC(=O)C=C[C@]4(C)[C@@]3(F)[C@@H](O)C[C@@]21C` [Example 16, fluticasone propionate]?
Morphology by X-ray powder diffraction pattern [2]: low level of a crystalline morphology; also recorded: mostly amorphous morphology; Particle size median [3]: Particle size median 4.10 microns;; particle size of the powder [3]: less than 10 microns; particle size D(0.10) [3]: 1.90 micron; particle size D(0.20) [3]: 2.46 micron; particle size D(0.50) [3]: 4.11 microns; particle size D(0.80) [3]: 6.70 microns; particle size D(0.90) [3]: 8.40 microns; particle size D(0.95) [3]: 9.86 microns; particle size D(0.98) [3]: 11.35 microns; particle size D(0.99) [3]: 12.10 microns; particle size D(1.00) [3]: 14.24 microns; Particle size distribution D(v, 0.1), 0.1 quantile [3]: 1.90 μ; Particle size distribution D(v, 0.5), 0.5 quantile [3]: 4.11 μ and 4.10 μ; Particle size distribution D(v, 0.9), 0.9 quantile [3]: 8.40 μ and 8.39 μ; Particle size distribution D(v, 0.95), 0.95 quantile [3]: 9.86 μ; Powder characteristics (flow and morphology of the powder) [4]: Partially amorphous powder

What does the source list for `CCC(=O)O[C@]1(C(=O)SCF)[C@H](C)C[C@H]2[C@@H]3C[C@H](F)C4=CC(=O)C=C[C@]4(C)[C@@]3(F)[C@@H](O)C[C@@]21C` [Example 14, fluticasone propionate]?
Particle size median [3]: Particle size median: 2.14 microns;; particle size D(0.10) [3]: 0.96 micron; particle size D(0.20) [3]: 1.27 micron; particle size D(0.50) [3]: 2.14 microns; particle size D(0.80) [3]: 3.44 microns; particle size D(0.90) [3]: 4.36 microns; particle size D(0.95) [3]: 5.27 microns; particle size D(0.98) [3]: 6.44 microns; particle size D(0.99) [3]: 7.32 microns; particle size D(1.00) [3]: 13.54 microns; Particle size distribution D(v, 0.1), 0.1 quantile [3]: 0.96 μ; Particle size distribution D(v, 0.5), 0.5 quantile [3]: 2.14 μ; Particle size distribution D(v, 0.9), 0.9 quantile [3]: 4.36 μ; Particle size distribution D(v, 0.95), 0.95 quantile [3]: 5.27 μ; Powder characteristics (flow and morphology of the powder) [4]: Free flowing crystalline powder; Tendency to agglomerate [4]: did not exhibit a tendency to agglomerate; also recorded: that does not tend to agglomerate

Which results are given for `CCC(=O)O[C@]1(C(=O)SCF)[C@H](C)C[C@H]2[C@@H]3C[C@H](F)C4=CC(=O)C=C[C@]4(C)[C@@]3(F)[C@@H](O)C[C@@]21C` [Example 15, fluticasone propionate]?
Particle size median [3]: Particle size median 2.67 microns;; particle size D(0.10) [3]: 1.06 micron; particle size D(0.20) [3]: 1.52 micron; particle size D(0.50) [3]: 2.67 microns; particle size D(0.80) [3]: 4.51 microns; particle size D(0.90) [3]: 5.95 microns; particle size D(0.95) [3]: 7.51 microns; particle size D(0.98) [3]: 9.81 microns; particle size D(0.99) [3]: 11.67 microns; Particle size distribution D(v, 0.1), 0.1 quantile [3]: 1.06 μ; Particle size distribution D(v, 0.5), 0.5 quantile [3]: 2.67 μ; Powder characteristics (flow and morphology of the powder) [4]: Free flowing crystalline powder; Tendency to agglomerate [4]: did not exhibit a tendency to agglomerate; also recorded: that does not tend to agglomerate

With `CCC(=O)O[C@]1(C(=O)SCF)[C@H](C)C[C@H]2[C@@H]3C[C@H](F)C4=CC(=O)C=C[C@]4(C)[C@@]3(F)[C@@H](O)C[C@@]21C` [Example 12, fluticasone propionate] as the molecule, how does the “Particle shape (SEM micrograph)” value [1] read?
Its value is “irregular shape of the particles; also recorded: irregular jaggedly shaped particles”.

What about the “Particle shape (SEM micrograph)” value ([1]; listed as Reference Example 12) of the same molecule?
Its value is “irregular jaggedly shape”.

And the “particle size distribution in words” value ([3]; air-jet milled, data not shown)?
The value was “either too many oversized particles or too many undersized particles; also recorded: unsatisfactory size distribution”.

What about the “Electrostatic charge of the powder” value [4] of the same molecule?
The value was “tended to accumulate a considerable amount of static charge; also recorded: tended to accumulate a considerable amount of electrostatic charge”.

And the Tendency to agglomerate [4]?
The Tendency to agglomerate was “generally tended to agglomerate; also recorded: high tendency to agglomerate”.
